For experiment [1], the target named is T1, Neuronal acetylcholine receptor; alpha9/alpha10 (Homo sapiens, UniProt Q9GZZ6+Q9UGM1). In words: Inhibition of human alpha9alpha10 nAChR expressed in Xenopus laevis oocytes expressing alpha9:alpha10 mRNA injection ratio of 1:3 assessed as inhibition of ACh-evoked currents by two-electrode voltage clamp assay. The class given is cell-based. In general terms: Two-electrode voltage clamp is typically applied to oocytes expressing channels or transporters.

For experiment [2], the target named is T2, Neuronal acetylcholine receptor; alpha3/beta4 (Homo sapiens) (UniProt P30926+P32297). In words: Inhibition of human alpha3beta4 nAChR expressed in Xenopus laevis oocytes assessed as inhibition of ACh-evoked currents at 1 uM by two-electrode voltage clamp assay. The class given is cell-based.
The target in experiment [3] is T3, Neuronal acetylcholine receptor; alpha3/beta2 (Homo sapiens) (UniProt P17787+P32297). The experiment is described as follows: Inhibition of human alpha3beta2 nAChR expressed in Xenopus laevis oocytes assessed as inhibition of ACh-evoked currents at 1 uM by two-electrode voltage clamp assay relative to control. It counts as cell-based.
In experiment [4] the target is T2, Neuronal acetylcholine receptor; alpha3/beta4 (Homo sapiens). The experiment is described as follows: Inhibition of human alpha3beta4 nAChR expressed in Xenopus laevis oocytes assessed as inhibition of ACh-evoked currents at 100 nM by two-electrode voltage clamp assay. The class given is cell-based.
Experiment [5] concerns the target T4, Neuronal acetylcholine receptor; alpha9/alpha10 (Homo sapiens) (UniProt Q9UGM1+Q9GZZ6). In words: Inhibition of human alpha9alpha10 nAChR expressed in Xenopus laevis oocytes assessed as inhibition of ACh-evoked currents at 100 nM by two-electrode voltage clamp assay. The class given is cell-based.
Experiment [6] addresses T3, Neuronal acetylcholine receptor; alpha3/beta2 (Homo sapiens). In words: Inhibition of human alpha3beta2 nAChR expressed in Xenopus laevis oocytes assessed as inhibition of ACh-evoked currents at 100 nM by two-electrode voltage clamp assay. It counts as cell-based.
Experiment [7] has as its target T1, Neuronal acetylcholine receptor; alpha9/alpha10. The experiment is described as follows: Inhibition of human alpha9alpha10 nAChR expressed in Xenopus laevis oocytes assessed as inhibition of ACh-evoked currents by two-electrode voltage clamp assay. The class given is cell-based.
Experiment [8] has as its target T5, Neuronal acetylcholine receptor subunit alpha-7 (Homo sapiens, UniProt P36544). The experiment is described as follows: Reversible inhibition of human alpha7 nAChR expressed in Xenopus laevis oocytes assessed as inhibition of ACh-evoked currents by two-electrode voltage clamp assay. It counts as cell-based.
Experiment [9] deals with T4, Neuronal acetylcholine receptor; alpha9/alpha10 (Homo sapiens). The experiment is described as follows: Inhibition of human alpha9alpha10 nAChR expressed in Xenopus laevis oocytes assessed as inhibition of ACh-evoked currents at 1 uM by two-electrode voltage clamp assay. It counts as cell-based.
Experiment [10] deals with T6, Neuronal acetylcholine receptor; alpha4/beta2 (Homo sapiens) (UniProt P17787+P43681). In words: Inhibition of human alpha4beta2 nAChR expressed in Xenopus laevis oocytes assessed as inhibition of ACh-evoked currents at 1 uM by two-electrode voltage clamp assay. The class given is cell-based.
For experiment [11], the target named is T4, Neuronal acetylcholine receptor; alpha9/alpha10 (Homo sapiens). In words: Reversible inhibition of human alpha9alpha10 nAChR expressed in Xenopus laevis oocytes assessed as inhibition of ACh-evoked currents by two-electrode voltage clamp assay. It counts as cell-based.
In experiment [12] the target is T5, Neuronal acetylcholine receptor subunit alpha-7. In words: Inhibition of human alpha7 nAChR expressed in Xenopus laevis oocytes assessed as inhibition of ACh-evoked currents by two-electrode voltage clamp assay. It counts as cell-based.
The target of experiment [13] is T6, Neuronal acetylcholine receptor; alpha4/beta2 (Homo sapiens). In words: Inhibition of human alpha4beta2 nAChR expressed in Xenopus laevis oocytes assessed as inhibition of ACh-evoked currents at 100 nM by two-electrode voltage clamp assay. It counts as cell-based.
Experiment [14] addresses T5, Neuronal acetylcholine receptor subunit alpha-7. The experiment is described as follows: Inhibition of human alpha7 nAChR expressed in Xenopus laevis oocytes assessed as inhibition of ACh-evoked currents at 1 uM by two-electrode voltage clamp assay relative to control. The class given is cell-based.
The target of experiment [15] is Neuronal acetylcholine receptor subunit alpha-7 (Rattus norvegicus, UniProt Q05941). The experiment is described as follows: Inhibition of rat alpha7 nAChR.

The source made the active and inactive calls. No cut-off for these calls is given here. Numbered stars: 1 amine (or outer) side, 2 acyl side, 3 side chain; on linkers, the order of the positions; unused ones are H or OH. Bridge positions count the residues as written; N and C are the ends. Square brackets hold non-standard residues; d marks the D form. Peptide text beside a SMILES is read from it. I, II: the chains in the order shown. ξ: configuration not given here. X1 = O=C(CCOCCOCCOCCOCCOCCOCCOCCOCCOCCn1cc(CCCC(=O)[*:2])nn1)[*:1]; ξK = NCCCCC(N)C(=O)O

T5 sequence (P36544 whole entry): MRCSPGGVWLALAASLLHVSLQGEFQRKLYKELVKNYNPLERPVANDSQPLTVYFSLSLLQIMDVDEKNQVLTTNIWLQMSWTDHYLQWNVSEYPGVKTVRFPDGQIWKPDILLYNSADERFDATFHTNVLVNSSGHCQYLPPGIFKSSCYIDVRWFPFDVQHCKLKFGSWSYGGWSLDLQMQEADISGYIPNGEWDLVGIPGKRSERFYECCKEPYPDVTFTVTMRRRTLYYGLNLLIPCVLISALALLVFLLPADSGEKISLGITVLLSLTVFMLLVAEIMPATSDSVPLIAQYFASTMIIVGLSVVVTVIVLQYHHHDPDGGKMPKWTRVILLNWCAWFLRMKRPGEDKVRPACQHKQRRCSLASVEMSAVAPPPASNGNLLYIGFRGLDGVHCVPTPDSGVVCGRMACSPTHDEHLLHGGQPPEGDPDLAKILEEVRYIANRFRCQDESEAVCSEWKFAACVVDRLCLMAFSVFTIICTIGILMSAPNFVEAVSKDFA
T1 sequence (Q9UGM1 whole entry): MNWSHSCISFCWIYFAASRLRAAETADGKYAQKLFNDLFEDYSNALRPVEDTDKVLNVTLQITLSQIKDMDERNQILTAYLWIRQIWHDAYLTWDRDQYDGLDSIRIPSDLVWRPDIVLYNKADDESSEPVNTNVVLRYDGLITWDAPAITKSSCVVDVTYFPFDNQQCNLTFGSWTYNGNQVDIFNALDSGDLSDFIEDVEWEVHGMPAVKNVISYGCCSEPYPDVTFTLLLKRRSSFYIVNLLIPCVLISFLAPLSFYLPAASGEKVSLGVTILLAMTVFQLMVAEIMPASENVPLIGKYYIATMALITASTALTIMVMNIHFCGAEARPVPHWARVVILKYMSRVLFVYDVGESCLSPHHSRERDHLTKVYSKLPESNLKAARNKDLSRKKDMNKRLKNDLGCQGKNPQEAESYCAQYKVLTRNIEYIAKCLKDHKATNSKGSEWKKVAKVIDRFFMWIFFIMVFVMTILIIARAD
T1 sequence (Q9GZZ6 whole entry): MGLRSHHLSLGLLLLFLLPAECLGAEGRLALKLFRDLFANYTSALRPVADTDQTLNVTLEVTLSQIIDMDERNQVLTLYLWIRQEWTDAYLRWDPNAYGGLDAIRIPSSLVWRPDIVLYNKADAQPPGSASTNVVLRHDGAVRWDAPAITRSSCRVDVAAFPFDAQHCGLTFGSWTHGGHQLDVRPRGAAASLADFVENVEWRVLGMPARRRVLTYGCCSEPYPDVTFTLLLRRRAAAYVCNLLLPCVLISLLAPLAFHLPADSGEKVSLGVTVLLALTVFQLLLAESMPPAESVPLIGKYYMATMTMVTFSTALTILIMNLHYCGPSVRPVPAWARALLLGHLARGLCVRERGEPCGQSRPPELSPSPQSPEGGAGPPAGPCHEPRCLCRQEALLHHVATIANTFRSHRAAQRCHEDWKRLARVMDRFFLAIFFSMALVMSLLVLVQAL
Chain of Neuronal acetylcholine receptor subunit alpha-7 (Rattus norvegicus, UniProt Q05941) (Q05941 whole entry): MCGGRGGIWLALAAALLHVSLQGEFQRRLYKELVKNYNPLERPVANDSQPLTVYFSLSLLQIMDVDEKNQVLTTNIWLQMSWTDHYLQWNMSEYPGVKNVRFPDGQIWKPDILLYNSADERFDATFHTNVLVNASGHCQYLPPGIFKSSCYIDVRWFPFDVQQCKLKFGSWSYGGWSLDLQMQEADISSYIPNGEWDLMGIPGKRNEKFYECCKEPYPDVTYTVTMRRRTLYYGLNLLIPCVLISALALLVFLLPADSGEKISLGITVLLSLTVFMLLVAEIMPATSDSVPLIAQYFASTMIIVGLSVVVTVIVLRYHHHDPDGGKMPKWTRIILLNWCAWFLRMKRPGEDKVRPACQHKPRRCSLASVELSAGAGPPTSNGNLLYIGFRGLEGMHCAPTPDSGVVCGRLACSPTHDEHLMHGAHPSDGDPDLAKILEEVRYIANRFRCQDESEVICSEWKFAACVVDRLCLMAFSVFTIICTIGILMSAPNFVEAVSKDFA

As a reminder, the IC50 is the midpoint of a concentration-inhibition curve. A word on the inhibition: it is the percentage by which the read-out fell short of the control. In the case of `N=C(N)NCCC[C@H](NC(=O)CNC(=O)C(CCCCNC(=O)CCCc1cn(CCOCCOCCOCCOCCOCCOCCOCCOCCOCCC(=O)NCC(=O)N[C@H]2CSSC[C@@H]3NC(=O)[C@H](CCCNC(=N)N)NC(=O)[C@@H]4CCCN4C(=O)[C@H](CC(=O)O)NC(=O)[C@H](CO)NC(=O)[C@H](CSSC[C@@H](C(N)=O)NC(=O)[C@H](CCCNC(=N)N)NC(=O)[C@H](Cc4ccc(O)cc4)NC(=O)[C@H](CCCNC(=N)N)NC3=O)NC2=O)nn1)NC(=O)CCCc1cn(CCOCCOCCOCCOCCOCCOCCOCCOCCOCCC(=O)NCC(=O)N[C@H]2CSSC[C@@H]3NC(=O)[C@H](CCCNC(=N)N)NC(=O)[C@@H]4CCCN4C(=O)[C@H](CC(=O)O)NC(=O)[C@H](CO)NC(=O)[C@H](CSSC[C@@H](C(N)=O)NC(=O)[C@H](CCCNC(=N)N)NC(=O)[C@H](Cc4ccc(O)cc4)NC(=O)[C@H](CCCNC(=N)N)NC3=O)NC2=O)nn1)C(=O)N[C@@H](CCCNC(=N)N)C(=O)N[C@@H](CCCNC(=N)N)C(=O)N[C@@H](CCCNC(=N)N)C(=O)NCC(N)=O` (some centres undefined) (I: GCCSDPRCRYRC-NH2 / II: GCCSDPRCRYRC-NH2 / III: [ξK]GRRRRG-NH2; disulfide I:2-I:8, I:3-I:12, II:2-II:8, II:3-II:12; linker I:N-III:1, II:N-III:N via X1), the 50% inhibitory concentration (IC50) in experiment [1] came out at 0.117 µM; in experiment [7] it was 0.0385 µM; in experiment [12], 0.0631 µM. Also, the inhibition result in [2], in [4], in experiment [10] and in experiment [13] was “inactive” throughout. Also, the inhibition was 60% in experiment [3], “Dose-dependent effect” in experiment [8] and “Dose-dependent effect” in experiment [11]. In addition, the inhibition entry in experiment [5], in experiment [6] and in [9] was “Active” throughout.
`N=C(N)NCCC[C@@H]1NC(=O)[C@H](Cc2ccc(O)cc2)NC(=O)[C@H](CCCNC(=N)N)NC(=O)[C@@H]2CSSC[C@H](NC(=O)CN)C(=O)N[C@@H](CSSC[C@@H](C(N)=O)NC1=O)C(=O)N[C@@H](CO)C(=O)N[C@@H](CC(=O)O)C(=O)N1CCC[C@H]1C(=O)N[C@@H](CCCNC(=N)N)C(=O)N2` (H-GCCSDPRCRYRC-NH2; disulfide 2-8, 3-12): the half-inhibitory concentration (IC50) was 0.249 µM in [7] and greater than 1 µM in experiment [12]. The inhibition in [14] stood at 20%.
Consider `CC[C@H](C)[C@@H]1NC(=O)[C@H](CCC(=O)O)NC(=O)[C@@H]2CCCN2C(=O)[C@H](Cc2cnc[nH]2)NC(=O)[C@H](CC(=O)O)NC(=O)[C@H](Cc2ccc(O)cc2)NC(=O)[C@H](CC(N)=O)NC(=O)[C@@H]2CSSC[C@H](NC(=O)CNC(=O)CCOCCOCCOCCOCCOCCOCCOCCOCCOCCn3cc(CCCC(=O)NCCCCC(NC(=O)CCCc4cn(CCOCCOCCOCCOCCOCCOCCOCCOCCOCCC(=O)NCC(=O)N[C@H]5CSSC[C@@H]6NC(=O)[C@H](CCCNC(=N)N)NC(=O)[C@@H]7CCCN7C(=O)[C@H](CC(=O)O)NC(=O)[C@H](CO)NC(=O)[C@H](CSSC[C@@H](C(N)=O)NC(=O)[C@H]([C@@H](C)CC)NC(=O)[C@H](CCC(=O)O)NC(=O)[C@@H]7CCCN7C(=O)[C@H](Cc7cnc[nH]7)NC(=O)[C@H](CC(=O)O)NC(=O)[C@H](Cc7ccc(O)cc7)NC(=O)[C@H](CC(N)=O)NC6=O)NC5=O)nn4)C(=O)NCC(=O)N[C@@H](CCCNC(=N)N)C(=O)N[C@@H](CCCNC(=N)N)C(=O)N[C@@H](CCCNC(=N)N)C(=O)N[C@@H](CCCNC(=N)N)C(=O)NCC(N)=O)nn3)C(=O)N[C@@H](CSSC[C@@H](C(N)=O)NC1=O)C(=O)N[C@@H](CO)C(=O)N[C@@H](CC(=O)O)C(=O)N1CCC[C@H]1C(=O)N[C@@H](CCCNC(=N)N)C(=O)N2` (some centres undefined), for which the figures for the IC50 in experiment [7] and in [12] were 0.266 µM and greater than 10 µM, respectively. In addition, the inhibition entry in experiment [8] and in experiment [11] was “Dose-dependent effect” in each case.
`CC(C)C[C@@H]1NC(=O)[C@H](CCC(=O)O)NC(=O)[C@@H]2CCCN2C(=O)[C@H](Cc2cnc[nH]2)NC(=O)[C@H](CC(N)=O)NC(=O)[C@H](C(C)C)NC(=O)[C@H](CO)NC(=O)[C@@H]2CSSC[C@H](NC(=O)CN)C(=O)N[C@@H](CSSC[C@@H](C(N)=O)NC1=O)C(=O)N[C@@H](CO)C(=O)N[C@@H](Cc1cnc[nH]1)C(=O)N1CCC[C@H]1C(=O)N[C@@H](C)C(=O)N2` (H-GCCSHPACSVNHPELC-NH2; disulfide 2-8, 3-16): the half-maximal inhibitory concentration (IC50) in experiment [12] was greater than 10 µM.
In the case of `CC[C@H](C)[C@@H]1NC(=O)[C@H](CCC(=O)O)NC(=O)[C@@H]2CCCN2C(=O)[C@H](Cc2cnc[nH]2)NC(=O)[C@H](CC(=O)O)NC(=O)[C@H](Cc2ccc(O)cc2)NC(=O)[C@H](CC(N)=O)NC(=O)[C@@H]2CSSC[C@H](NC(=O)CN)C(=O)N[C@@H](CSSC[C@@H](C(N)=O)NC1=O)C(=O)N[C@@H](CO)C(=O)N[C@@H](CC(=O)O)C(=O)N1CCC[C@H]1C(=O)N[C@@H](CCCNC(=N)N)C(=O)N2`, the IC50 in experiment [7] is 1 µM; in experiment [12] it was greater than 10 µM.
For the molecule `N=C(N)NCCC[C@H](NC(=O)[C@@H]1CSSC[C@@H]2NC(=O)[C@@H](NC(=O)CN)CSSC[C@H](NC(=O)[C@H](CCCNC(=N)N)NC(=O)[C@@H]3CCCN3C(=O)[C@H](CC(=O)O)NC(=O)[C@H](CO)NC2=O)C(=O)N[C@@H](CCCNC(=N)N)C(=O)N[C@@H](Cc2ccc(O)cc2)C(=O)N[C@@H](CCCNC(=N)N)C(=O)N1)C(=O)O`, the IC50 in [15] turned out to be 4.66 µM.
Turning to `CC(C)C[C@@H]1NC(=O)[C@H](CCC(=O)O)NC(=O)[C@@H]2CCCN2C(=O)[C@H](Cc2cnc[nH]2)NC(=O)[C@H](CC(N)=O)NC(=O)[C@H](C(C)C)NC(=O)[C@H](CO)NC(=O)[C@@H]2CSSC[C@H](NC(=O)CNC(=O)CCOCCOCCOCCOCCOCCOCCOCCOCCOCCn3cc(CCCC(=O)NCCCCC(NC(=O)CCCc4cn(CCOCCOCCOCCOCCOCCOCCOCCOCCOCCC(=O)NCC(=O)N[C@H]5CSSC[C@@H]6NC(=O)[C@H](C)NC(=O)[C@@H]7CCCN7C(=O)[C@H](Cc7cnc[nH]7)NC(=O)[C@H](CO)NC(=O)[C@H](CSSC[C@@H](C(N)=O)NC(=O)[C@H](CC(C)C)NC(=O)[C@H](CCC(=O)O)NC(=O)[C@@H]7CCCN7C(=O)[C@H](Cc7cnc[nH]7)NC(=O)[C@H](CC(N)=O)NC(=O)[C@H](C(C)C)NC(=O)[C@H](CO)NC6=O)NC5=O)nn4)C(=O)NCC(=O)N[C@@H](CCCNC(=N)N)C(=O)N[C@@H](CCCNC(=N)N)C(=O)N[C@@H](CCCNC(=N)N)C(=O)N[C@@H](CCCNC(=N)N)C(=O)NCC(N)=O)nn3)C(=O)N[C@@H](CSSC[C@@H](C(N)=O)NC1=O)C(=O)N[C@@H](CO)C(=O)N[C@@H](Cc1cnc[nH]1)C(=O)N1CCC[C@H]1C(=O)N[C@@H](C)C(=O)N2` (some centres undefined) (I: GCCSHPACSVNHPELC-NH2 / II: GCCSHPACSVNHPELC-NH2 / III: [ξK]GRRRRG-NH2; disulfide I:2-I:8, I:3-I:16, II:2-II:8, II:3-II:16; linker I:N-III:1, II:N-III:N via X1), the figures for the IC50 in experiment [7] and in experiment [12] were 0.0019 µM and 0.354 µM, respectively. In addition, the inhibition entry in [8] and in experiment [11] was “Dose-dependent effect” each time.
Take `C[C@@H]1NC(=O)[C@@H]2CSSC[C@H](NC(=O)CN)C(=O)N[C@@H](CSSC[C@@H](C(N)=O)NC(=O)[C@H](CCCNC(=N)N)NC(=O)[C@H](Cc3c[nH]c4ccccc34)NC1=O)C(=O)N[C@@H](CO)C(=O)N[C@@H](CC(=O)O)C(=O)N1CCC[C@H]1C(=O)N[C@@H](CCCNC(=N)N)C(=O)N2`: the IC50 in [12] was found to be 1 µM.

The values above are taken from ChEMBL document CHEMBL4354859, “Dimerization of α-Conotoxins as a Strategy to Enhance the Inhibition of the Human α7 and α9α10 Nicotinic Acetylcholine Receptors” (J Med Chem, 2020).
